Tests used:
[1] = test system: A549-derived xenografts; assay: A549 xenograft combination study; format: in vivo, mouse; conditions: single agent (AS1410 1 mg/kg or cisplatin 6 mg/kg), after approximately 60 days
Experimental: AS1410 was reconstituted in 0.9% saline B.P. to the required final concentration (0.331 and 0.0993) mg/ml of AS1410 succinate salt for intravenous administration).
The xenografts were prepared from the lung carcinoma A549 (ATCC Number CCL-185). Cells were grown in accordance with standard operating procedures and established methodology for this cell line to provide 5×10^6 cells per mouse.
A549-derived xenografts were established in 50 female nu/nu MF1 mice respectively by subcutaneous injection into the right flank of each mouse (5×10^6 cells in 100 μl phosphate buffered saline).
Animals were checked regularly until visible tumours appeared. Tumours were then measured in accordance with the relevant SOP regularly and tumour volume calculated using the formula: […]
Once the tumours were established, the mice were allocated into groups of 9 mice using a randomization procedure based on stratified xenograft volume.
Day 0 is defined as the day on which the average tumour volume is between 0.04 to 0.1 cm^3. Relative tumour volume on Day 0 is defined as 1.
Each mouse was observed and tumours measured until the xenografts tripled (3V0) in volume compared with volume on the day of treatment (V0). The elapsed period is the volume tripling time (VTT).
AS1410 was given by slow bolus intravenous injection. For AS1410 a dose volume 5 μl/g bodyweight was used. Control mice were untreated. […]

[2] = test system: human telomerase; conditions: Read et al. 2001; Harrison et al. 2003; Schultes et al. 2004; cited from earlier work

With `N.N.[Cl][Pt][Cl]` [cisplatin, cis-diaminedichloroplatinum(II)] the relative tumour volume [1] was “about 5”.

In the case of `Nc1ccc(Nc2c3ccc(NC(=O)CCN4CCCC4)cc3nc3cc(NC(=O)CCN4CCCC4)ccc23)cc1` [BR-ACO-20], the “in vitro inhibitory activity against human telomerase” value [2] is given as “potent in vitro inhibitory activity”.
